The results in this text go back to article PMC7785057 (ACS catalysis, 2020).

The Km is the concentration of substrate that gives half-maximal velocity.

This assay concerns the target NmSiaDW (Neisseria meningitidis, UniProt O33390). The assay can be described thus: sialyltransferase kinetics, varied acceptor. The class given is biochemical. Conditions: α2–6-sialyltransferase activity, fixed concentration of CMP-Neu5Ac.

As to `CC(=O)N[C@H]1[C@H]([C@H](O)[C@H](O)CO)O[C@@](OC[C@H]2O[C@H](O[C@H]3C[C@](OCCCNC(=O)OCc4ccccc4)(C(=O)O)O[C@@H]([C@H](O)[C@H](O)CO)[C@@H]3NC(C)=O)[C@H](O)[C@@H](O)[C@H]2O)(C(=O)O)C[C@@H]1O[C@H]1O[C@H](CO)[C@H](O)[C@H](O)[C@H]1O` [G4], the Km worked out at 240 ± 40 µM.
